# In patent US8153637B2, “Phenyl-alkyl piperazines having TNF-modulating activity, preparation method, and therapeutic use thereof” (Sanofi, priority 2008, dated 2012):
# Tested on: TNF-α
# Experiment: Synthesis of TNF-α induced in Sprague-Dawley rats by LPS from Escherichia coli
# Format: in vivo
# Settings: male Sprague-Dawley rats, oral administration; LPS i.v. 0.1 mg/Kg two hours later; serum TNF-α 1.5 hours after LPS
# Experimental: The test products are administered orally to groups of ten male Sprague-Dawley rats weighing about 200 grams. Two hours later, LPS is administered intravenously (0.1 mg/Kg). The blood of each animal is collected 1.5 hours after the LPS administration. The samples are centrifuged, and the serum is recovered and frozen at −80° C. The TNF-α is measured using commercial kits (RPN 2744 Amersham, UK).
row,"IC50, inhibiting the synthesis of TNF-α [mg/kg]",SMILES
1,1,"CCCCCc1cc(CCN2CCN(c3cccc(C(F)F)c3)CC2)ccc1C.Cl [compound 8, 1-(3-difluoromethylphenyl)-4-[2-(4-methyl-3-pentylphenyl)-ethyl]piperazine hydrochloride]"
2,1,"CCCCCc1cc(CCN2CCN(c3cccc(F)c3)CC2)ccc1C.Cl [compound 4, 1-(3-fluorophenyl)-4-[2-(4-methyl-3-pentylphenyl)ethyl]-piperazine hydrochloride]"

row,SMILES,"IC50, inhibiting the synthesis of TNF-α [mg/kg]"
1,"CCCCCc1cc(CCN2CCN(c3cccc(C(F)(F)F)c3)CC2)ccc1C.CCCCCc1cc(CCN2CCN(c3cccc(C(F)(F)F)c3)CC2)ccc1C.O=C(O)c1cc2ccccc2c(Cc2c(O)c(C(=O)O)cc3ccccc23)c1O [compound 1, 1-(3-trifluoromethylphenyl)-4-[2-(4-methyl-3-pentylphenyl)ethyl]piperazine hemipamoate]",0.3

# Tested on: tactile allodynia after spare nerve injury
# Experiment: Model of neuropathic pain: anti-allodynic effect in the spare nerve injury (SNI), von Frey test
# Format: in vivo
# Settings: male C57B6 mice, 7 days after surgery, 1 mg/kg i.v., from 1 h to 6 h after administration
# Experimental: The compounds of the invention are also tested in a model of neuropathic pain: measurement of the anti-allodynic effect in the spare nerve injury (SNI).
# In this in vivo model of mice suffering from chronic neuropathic pain, the effect on tactile allodynia, a painful sensation induced after a mechanical stimulus not normally painful, is triggered in the hind leg by surgical lesion of the great sciatic nerve. It is then determined by measuring the paw withdrawal threshold (PWT), i.e. the applied force (expressed in grams) at which the mouse withdraws its hind leg.
# Tactile allodynia is determined on both hind legs, i.e. homolaterally and controlaterally to the lesion determined following surgery, with the automatic von Frey test, in which the plantar skin of the hind legs is exposed to a pressure stimulus of increasing intensity reaching 5 grams, using a discharge needle prod. […]
# Trial groups using the compounds according to the invention and a control group of animals were used, each being composed of four male C57B6 mice. In each group, the baseline of the PWT values (BL) was determined before surgery. […]
# 7 days after surgery, just before the administration of the compound, i.e. at 0 h, and in all the groups, the PWT values were determined for the homolateral hind leg (injured) and the controlateral hind leg (non-injured). […]
row,SMILES,"reduction of pain (anti-allodynic effect, paw withdrawal threshold PWT)"
1,"CCCCCc1cc(CCN2CCN(c3cccc(C(F)(F)F)c3)CC2)ccc1C.CCCCCc1cc(CCN2CCN(c3cccc(C(F)(F)F)c3)CC2)ccc1C.O=C(O)c1cc2ccccc2c(Cc2c(O)c(C(=O)O)cc3ccccc23)c1O [compound 1, 1-(3-trifluoromethylphenyl)-4-[2-(4-methyl-3-pentylphenyl)ethyl]piperazine hemipamoate]",statistically significant reduction of pain

# Tested on: Zymosan-induced knee joint inflammation / hyperalgesia
# Experiment: Model of joint inflammation: Zymosan-induced knee joint inflammation, secondary hyperalgesia (plantar test)
# Format: in vivo
# Settings: male hamster, 1 ng/joint injected into the joint one hour before first Zymosan injection; 3 Zymosan injections; measured from 4 hours and during following 3 weeks
# Experimental: The compounds of the invention are tested in a model of joint inflammation.
# The compound (1 ng/joint as a suspension in 10 μL of a solution of 2% PVP (polyvinylpyrrolidone)/1% lutrol F68/0.9% NaCl) according to the invention is injected one hour before the first injection of Zymosan® (see below) into the joint of a hamster.
# Induction of a knee joint inflammation: Under light anaesthesia using isofluran, a suspension of Zymosan® at a dose of 100 μg in 10 μL of saline solution is injected into the knee joint of a male hamster. Zymosan® is a yeast extract which produces a strong dose-dependent inflammation when subcutaneously injected. Under the experimental conditions described herein (injection into the knee joint), it induces a hyperalgesia lasting for a week. In order to extend this period, 3 consecutive injections of Zymosan® were applied. The lag time to paw withdrawal, following exposure of the plantar skin to a defined heat stimulus, is measured using apparatus (Plantar Test Ugo Basile Biological Research Apparatus, Comerio, Italy) comprising a mini-camera to ensure the correct positioning of the infrared ray below the hind leg of interest.
# Measurement of Secondary Hyperalgesia:
# The timer, which measures the length of time the infrared light is reflected by the hind leg, is started by the investigator and stops automatically as soon as the animal shakes or pulls away its leg. […]
row,SMILES,"reduction of pain (lag time to leg withdrawal, secondary hyperalgesia)"
1,"CCCCCc1cc(CCN2CCN(c3cccc(C(F)(F)F)c3)CC2)ccc1C.CCCCCc1cc(CCN2CCN(c3cccc(C(F)(F)F)c3)CC2)ccc1C.O=C(O)c1cc2ccccc2c(Cc2c(O)c(C(=O)O)cc3ccccc23)c1O [compound 1, 1-(3-trifluoromethylphenyl)-4-[2-(4-methyl-3-pentylphenyl)ethyl]piperazine hemipamoate]",effective reduction of pain over a 3-week period

# Tested on: not given
# Experiment: not given
# Settings: not given
row,melting point [°C],SMILES
1,203,CCCCCc1cc(CCN2CCN(c3ccc(Cl)cc3)CC2)ccc1C.Cl
2,198 to 200,CCCc1cc(CCN2CCN(c3cccc(C(F)(F)F)c3)CC2)ccc1C.Cl
3,190 to 192,CCCCCCCc1cc(CCN2CCN(c3cccc(C(F)(F)F)c3)CC2)ccc1C.Cl
4,146 to 149,CCCCCc1cc(CCN2CCN(c3cccc(C(F)(F)F)c3)CC2)ccc1OC.Cl
5,182 to 185,"CCCCCc1cc(CCN2CCN(c3cccc(C(F)F)c3)CC2)ccc1C.Cl [compound 8, 1-(3-difluoromethylphenyl)-4-[2-(4-methyl-3-pentylphenyl)-ethyl]piperazine hydrochloride]"
6,193 to 195,CCCCCc1cc(CCN2CCN(c3ccc(C(C)(C)C)cc3)CC2)ccc1C.Cl
7,190 to 192,CCCCCc1cc(CCN2CCN(c3ccc(Br)cn3)CC2)ccc1C.Cl.Cl
8,214,CCCCCCCc1cc(CCN2CCN(c3cccc(C(F)(F)F)c3)CC2)ccc1OC.Cl
9,> 212,CCCCCc1cc(CCN2CCN(c3ccc(C(F)(F)F)cn3)CC2)ccc1C.Cl.Cl
10,183 to 185,CCCCCc1cc(CCN2CCN(c3ccccn3)CC2)ccc1C.Cl.Cl
11,125 to 128,CCCCCc1cc(CCN2CCN(c3cccc(C(F)F)c3)CC2)ccc1OC.Cl
12,215 to 217,"CCCCCc1cc(CCN2CCN(c3cccc(F)c3)CC2)ccc1C.Cl [compound 4, 1-(3-fluorophenyl)-4-[2-(4-methyl-3-pentylphenyl)ethyl]-piperazine hydrochloride]"
13,185 to 187,CCCCCc1cc(CCN2CCN(c3cccc(Br)n3)CC2)ccc1C.Cl
14,220 to 222,CCCCCc1cc(CCN2CCN(c3ccccc3C)CC2)ccc1C.Cl
15,200 to 202,CCCCCc1cc(CCN2CCN(c3ccccc3)CC2)ccc1C.Cl
16,187,CCCCCCc1cc(CCN2CCN(c3cccc(C(F)(F)F)c3)CC2)ccc1C.Cl
17,174 to 177,CCCCCc1cc(CCN2CCN(c3cccc(F)c3)CC2)ccc1OC.Cl
18,226 to 228,CCCCCc1cc(CCN2CCN(c3cccc(C)c3)CC2)ccc1C.Cl.Cl
19,161 to 163,CCCCCc1cc(CCN2CCN(c3cccc(C(F)(F)F)n3)CC2)ccc1C.Cl
20,197 to 200,CCCCCc1cc(CCN2CCN(c3cccc(OC(F)(F)F)c3)CC2)ccc1C.Cl
21,200 to 202,CCCCCc1cc(CCN2CCN(c3ccccc3Cl)CC2)ccc1C.Cl
22,199 to 201,CCCCCc1cc(CCN2CCN(c3ccc(Cl)cn3)CC2)ccc1C.Cl
23,199 to 201,CCCCCc1cc(CCN2CCN(c3cccc(OC)c3)CC2)ccc1C.Cl
24,228 to 230,CCCCCc1cc(CCN2CCN(c3ccc(OCC)cc3)CC2)ccc1C.Cl.Cl
25,184 to 185,CCCc1cc(CCN2CCN(c3cccc(C(F)(F)F)c3)CC2)ccc1OC.Cl
26,> 201,CCCCCc1cc(CCN2CCN(c3ccc(F)cc3)CC2)ccc1C.Cl.Cl

# Tested on: TNF-α
# Experiment: Synthesis of TNF-α induced in Balb/c mice by LPS from Escherichia coli
# Format: in vivo
# Settings: female Balb/c mice, oral administration; LPS i.v. 10 μg/mouse one hour later; plasma TNF-α 1.5 hours after LPS
# Experimental: The test products are administered orally to groups of five 7- to 8-week-old female Balb/c mice (Charles River, France). One hour later, LPS is administered intravenously (10 μg/mouse). The blood of each animal is collected 1.5 hours after the LPS administration. The samples are centrifuged, and the plasma is recovered and frozen at −80° C. The TNF-α is measured using commercial kits (R & D, Abingdon, UK).
row,SMILES,"IC50, inhibiting the synthesis of TNF-α [mg/kg]"
1,"CCCCCc1cc(CCN2CCN(c3cccc(C(F)(F)F)c3)CC2)ccc1C.O=C(O)CCC(=O)O [compound 38, 1-(3-trifluoromethylphenyl)-4-[2-(4-methyl-3-pentyl-phenyl)ethyl]piperazine succinate]",0.1
